Row | Structure (SMILES) | melting point
1 | O=C(c1ccco1)c1noc(-c2ccc([N+](=O)[O-])cc2)c1S(=O)(=O)c1ccccc1 | 138 °C
2 | ClC(=C(Cl)c1ccccc1)c1ccccc1 | 144 °C
3 | O=C(NCOC(=O)c1ccc(O)cc1)c1ccccc1 | 165 to 166 °C
4 | OCCN(CCO)CCCc1ccc(COc2ccccc2)cc1 | 63 to 64 °C
5 | Nc1ccnc(N)n1 | 143 to 148 °C
6 | CC(C)(C)N(NC(=O)c1ccccc1)C(=O)c1ccccc1F | 184 °C
7 | O=C(O)c1c(F)cccc1I | 121 to 126 °C
8 | Brc1ccc2cc(Br)ccc2c1 | 165 °C
9 | O=P(OC(CCl)CCl)(OC(CCl)CCl)OC(CCl)CCl | 27 °C
10 | CCCCCCCCCCCCC(Oc1ccc([N+](=O)[O-])cc1)C(=O)NN (centres undefined) | 127 °C
11 | Cn1c(=O)c2c(ncn2CC(O)CO)n(C)c1=O (centres undefined) | 162 °C
12 | CC(C)S(=O)(=O)CC#N | 32 to 34 °C
13 | COc1cc(Br)cc(F)c1F | 35 °C
14 | CCNc1nc(Cl)nc(NC(C)(C)C#N)n1 | 168 °C
15 | CCN(CC)c1ccc2cc(-c3nc4ccccc4s3)c(=O)oc2c1 | 205 to 208 °C
16 | CCCCCCC(O)C1C2=C(CC(C(O)C3CC=CC(=O)O3)CC3=C(C(=O)OC3=O)C1O)C(=O)OC2=O (centres undefined) | 170 °C
17 | Cc1cc2c(o1)-c1c(oc3c(Br)cc(Br)cc13)CCC2C (centres undefined) | 121 °C
18 | Cc1cc(C)nc(Cl)n1 | 34 to 36 °C
19 | Cc1nc(/C(C#N)=N/Nc2ccccc2[N+](=O)[O-])sc1/N=N/c1ccccc1 | 210 °C
20 | Nc1ccc(C2(c3ccc(N)cc3)OC(=O)c3ccccc32)cc1 | 203 °C
21 | CC(C)(C)OC(=O)NC(Cc1ccc2ccccc2c1)C(=O)O (centres undefined) | 90 °C
22 | O=C(NC(=O)c1c(F)cccc1F)Nc1ccc(OC(F)(F)C(F)OC(F)(F)F)c(Cl)c1 (centres undefined) | 178 °C
23 | O=S1(=O)CCN(Cc2ccccc2)CC1 | 85 to 86 °C

Row | Structure (SMILES) | melting point
24 | CC(C)(C)c1ccc(C(N)=O)cc1 | 173 °C
25 | CCN(CC)C(=O)c1cccnc1 | 25 °C
26 | Cc1c(C)c([N+](=O)[O-])c(C(C)(C)C)c([N+](=O)[O-])c1C | 136 °C
27 | O=C1C(=O)C(Br)=C(Br)C(Br)=C1Br | 143 to 148 °C
28 | Nc1ccc(Cl)cn1 | 137 °C
29 | CN(C)CCCN1c2ccccc2CCc2ccc(Cl)cc21 | 190 °C
30 | O=[N+]([O-])c1cnccc1O | 271 to 273 °C
31 | O=C(Oc1ccccc1)c1ccc(C(=O)Oc2ccccc2)cc1 | 197 °C
32 | CC(F)(F)C(=O)O | 43 °C
33 | CCOP(=S)(OCC)SC(CCl)N1C(=O)c2ccccc2C1=O (centres undefined) | 68 °C
34 | O=C(O)c1cccc(C(=O)c2ccccc2)c1 | 164 °C
35 | CCC(O)C1CCCCN1 (centres undefined) | 121 °C
36 | COCCOC | -58 °C
37 | CC(C)(C)OC(=O)NCCC(=O)O | 75 °C
38 | CCCCCCCCCC(C)C | -47 °C
39 | O=S1(=O)CCOCC1 | 132 °C
40 | CC(C)C1CCC2(C)CC(O)C3(C)CCC12O3 (centres undefined) | 114 °C
41 | O=C(NCCO[N+](=O)[O-])c1cccnc1 | 92.5 °C
42 | Oc1ccc(O)c(Br)c1 | 112 °C
43 | CN(C)C(=O)C(CCN1CCC(O)(c2ccc(Cl)cc2)CC1)(c1ccccc1)c1ccccc1 | 228 °C
44 | NC(=S)Nc1ccc(Cl)c(Cl)c1 | 210 to 213 °C
45 | OC(CCl)CCl | -4 °C
46 | CC1=C(C=NO)C(=O)C(C(C)C)C=C1 (centres undefined) | 146 °C

Row | Structure (SMILES) | melting point
47 | O=C(O)CCCCCO | 38 to 40 °C
48 | CCOCCO | -70 °C
49 | O=C(C1=NN(c2ccccc2)C2C(=O)N(c3ccc(Br)cc3)C(=O)C12)c1ccc(Cl)cc1 (centres undefined) | 255 °C
50 | CCOC(=O)c1c(SC)nn(S(=O)(=O)c2ccc(OC)cc2)c1N | 143 to 145 °C
51 | Cc1ccc2c(c1)CCCC2 | -40 °C
52 | CC(C)(C)OC(=O)NC(=O)OC(C)(C)C | 114 to 117 °C
53 | NCCCNCCO | 15 to 19 °C
54 | NC(=S)c1cccc(-n2cccc2)c1 | 110 to 112 °C
55 | O=C(Cl)c1sc(Br)c2c1OCCO2 | 154 to 155 °C
56 | CSc1nc2cc(N=Cc3ccc(F)cc3)ccc2[nH]1 | 174 to 175 °C
57 | O=C(CBr)c1ccnc(Cl)c1 | 55 to 56.5 °C
58 | Nc1c(Br)cc(C2CCCCC2)cc1Br | 37 to 38 °C
59 | Cc1cc(C(=O)O)c(C)[nH]1 | 200 °C
60 | CC(C)NNC(=O)COc1ccc(Cl)cc1 | 93.5 °C
61 | CN1CCOc2cc(C#N)cnc21 | 107 to 109 °C
62 | [O-][P+](c1ccccc1)(c1ccccc1)C1Sc2ccccc2S1 | 181 °C
63 | O=[N+]([O-])c1cccc(OCCBr)c1 | 39 °C
64 | CN(C)CCC#N | -43 °C
65 | ClC(Cl)=CBr | -88.5 °C
66 | O=Cc1ccccc1OCc1ccccc1 | 47 °C
67 | S=C(c1ccc2c(c1)OCO2)N1CCOCC1 | 154 °C
68 | O=C(O)Cc1c(F)c(F)c(F)c(F)c1F | 109 °C
69 | Cc1cc2c3c(c1)c(O)c(-c1ccccc1)c(=O)n3CCC2 | 215 to 218 °C

Row | Structure (SMILES) | melting point
70 | C=CCCCCCCCCC | -49.2 °C
71 | CC(=O)Nc1ccc(N)cc1C | 141 to 142 °C
72 | CC(=O)c1cc(F)cc(F)c1O | 109 to 110 °C
73 | N#Cc1c(C(F)(F)F)cc(-c2ccccc2)[nH]c1=O | 301 to 303 °C
74 | Cn1nc(C(C)(C)C)cc1C(=O)O | 151 to 154 °C
75 | CC(C)(C(=O)O)n1nnc2ccccc21 | 182 °C
76 | Cc1cc(OCc2ccccc2)ccc1[N+](=O)[O-] | 70 °C
77 | CCNC(=O)Nc1ncc([N+](=O)[O-])s1 | 228 °C
78 | c1cnc(N2CCN(Cc3ccc4c(c3)OCO4)CC2)nc1 | 98 °C
79 | O=C1CC(=O)NCCNCCNCCNC(=O)CC(=O)NCCNCCNCCN1 | 199 to 202 °C
80 | CC(C)(C)N(NC(=O)c1ccccc1)C(=O)c1c(F)cccc1Cl | 210 °C
81 | Brc1ccc2c(c1)Oc1ccc(Br)cc1O2 | 193 °C
82 | Cc1cc(N(C)C)nc(Cl)n1 | 87 °C
83 | O=C1NC(=O)C(=NNc2ccccc2[N+](=O)[O-])C(=O)N1 | 290 °C
84 | O=C1C(=Cc2ccccc2)CCCC1=Cc1ccccc1 | 118 °C
85 | CCC(O)CO (centres undefined) | -50 °C
86 | Fc1cccc(C(F)(F)F)c1CBr | 44 °C
87 | O=C1C=CCN1[C@@H](CO)c1ccccc1 | 103 °C
88 | CN(C)c1ccc(C=Nc2n[nH]c(N=Cc3ccc(N(C)C)cc3)c2Cc2ccc(Cl)cc2)cc1 | 260 to 262 °C
89 | CS(=O)(=O)Oc1ccccc1 | 62 to 63 °C
90 | COC(=O)c1ccc(N2CCCC2)nc1 | 119 to 121 °C
91 | COc1ccc(-c2cc(N3CCCC3)cc3c2c(=O)n(-c2ccccc2)n3C)cc1 | 217 °C
92 | CC1CCC(C)C(C)C1C (centres undefined) | -75 °C

Row | Structure (SMILES) | melting point
93 | O=C(O)c1cc(C(=O)O)c(C(=O)O)cc1C(=O)O | 281 to 284 °C
94 | CCNc1nc(NC(C)(C)C)nc(OC)n1 | 124 °C
95 | O=C1CCSc2ccc(F)cc21 | 94 to 95 °C
96 | O=C(O)C=CC(=O)c1ccccc1 | 91 to 96 °C
97 | O=S(=O)(Cl)c1ccc(N2CCOCC2)nc1 | 118 °C
98 | CCC12CC3CC(CC(Br)(C3)C1)C2 | 23 to 24 °C
99 | Cn1nc(C(F)(F)F)c(-c2ccccc2)c1N | 85 to 89 °C
100 | CC12CCC(=O)C=C1C=CC1C2CCC2(C)C1CCC21CCC(=O)O1 (centres undefined) | 150 °C
101 | CCCCCCCCCCCS | -3 °C
102 | O=C(c1ccc(F)cc1)[C@H]1CCCC[C@H]1C(=O)O (relative stereo) | 136 to 139 °C
103 | Cc1cc(C)c(C#N)c(C)c1 | 53 °C
104 | Cc1ccc(Cl)c(O)c1F | 48 °C
105 | Cc1ccc(F)c(C#N)c1Cl | 59 °C
106 | O=C1OCc2cc(Br)ccc21 | 162 to 166 °C
107 | Nc1cccc(C=CC(=O)c2ccccc2)c1 | 159 °C
108 | CC=CC(C)(C)C | -115 °C
109 | COC(=O)c1ccc(C(=O)OC)c(I)c1 | 81 to 82 °C
110 | CC(=O)N(C)c1ccccc1C | 55.5 °C
111 | C=CC(=O)OCC(CC)CC | -70 °C
112 | CC(=NO)C(C)(C)O | 85 °C
113 | Cc1nn(Cc2ccc(C(=O)O)o2)c(C)c1Br | 207 to 208 °C
114 | CC12C(=O)OC(=O)C1(C)C1CCC2O1 (centres undefined) | 218 °C
115 | CC(=O)OC(=CC=C(OC(C)=O)c1ccccc1)c1ccccc1 | 174 to 176 °C

Row | Structure (SMILES) | melting point
116 | O=C(Cl)C=Cc1ccccc1 | 36 °C
117 | O=C(O)CCc1nc(-c2ccccc2)c(-c2ccccc2)o1 | 160 °C
118 | CC12CCC3C(CCC4CC(=O)CCC43C)C1CCC2O (centres undefined) | 181 °C
119 | CCCCCCCCCCCCCCCCCCNC | 44 °C
120 | NC(Cc1cccc2ccccc12)=NO | 127 to 129 °C
121 | Nc1ccc(OC(F)(F)F)c(Cl)c1 | 30 °C
122 | CCCC(=O)OC1(C(=O)CCl)C(C)CC2C3CCC4=CC(=O)C=CC4(C)C3(F)C(=O)CC21C (centres undefined) | 95 °C
123 | Cc1cc(C)n(N=Cc2ccc(F)cc2)c(=O)c1C#N | 186 to 188 °C
124 | OCc1cc2c(cc1Cl)OCO2 | 70 °C
125 | Cc1cc2ccccc2oc1=O | 91 °C
126 | CC#CC1(O)CCC2C3CC(C)C4=CC(=O)CCC4(C)C3CCC21C (centres undefined) | 102 °C
127 | CCCCCCCCCCC(C)C | -26 °C
128 | CC(C#N)c1ccccc1[N+](=O)[O-] (centres undefined) | 51 °C
129 | CCCCCCCCCOC(C)=O | -26 °C
130 | O=C(O)c1cnccn1 | 222 to 225 °C
131 | Cc1ccc(Sc2ncccc2C(N)=O)cc1 | 205 to 207 °C
132 | CN1CCN(C(=S)SSC(=S)N2CCN(C)CC2)CC1 | 142 to 143 °C
133 | CCCCCCCCCCCCCCCCCCCCc1ccccc1 | 44 °C
134 | CCCCCCCCc1ccc(C(=O)CCC(=O)O)cc1 | 91 to 93 °C

— a melting point compilation (Tetko et al.)
